In patent US5326766A, “4-(2-(4-(2-pyridinyloxy)phenyl)ethoxy)quinazoline and analogues thereof” (priority 1992, dated 1994):

Assays:
[1] = system: Pyricularia oryzae (rice blast); assay: whole plant or invertebrate; assay type: in vivo; conditions: Pyricularia oryzae, foliar, read-out: PYRIOR disease control, host rice; foliar spray; 400 ppm (+++: 100 ppm)
[2] = system: Plasmopara viticola (downy mildew); assay: Foliar spray fungicide test, Plasmopara viticola (downy mildew) on grape; conditions: for pest or weed control at 400 µg/mL: Plasmopara viticola, foliar, read-out: PLASVI disease control
Method: (§1) The test compounds were formulated for application by dissolving 50 mg of the compound into 1.25 ml of solvent. The solvent was prepared by mixing 50 ml of "Tween 20" (polyoxyethylene (20) sorbitan monolaurate emulsifier) with 475 ml of acetone and 475 ml of ethanol. The solvent/compound solution was diluted to 125 ml with deionized water. The resulting formulation contains 400 ppm test chemical. Lower concentrations were obtained by serial dilution with the solvent-surfactant mixture.
(§2) The formulated test compounds were applied by foliar spray.
(§3) The formulated technical compounds were sprayed on all foliar surfaces of the host plants to past run-off. Single pots of each host plant were placed on raised, revolving pedestals in a fume hood. Test solutions were sprayed on all foliar surfaces. All treatments were allowed to dry and the plants were inoculated with the appropriate pathogens within 24 hours.
(§4) The effectiveness of test compounds in controlling disease was rated using the following scale.

[3] = system: Leptosphaeria nodorum (glume blotch); assay: Foliar spray fungicide test, Leptosphaeria nodorum (glume blotch) on wheat; conditions: Parastagonospora nodorum, in Triticum aestivum, foliar, read-out: LETPNO disease control, host wheat, 400 ppm (+++: 100 ppm)
Method: as §1, §2, §3, §4

[4] = system: Puccinia recondita tritici (leaf rust); assay: Foliar spray fungicide test, Puccinia recondita tritici (leaf rust) on wheat; conditions: Puccinia recondita, in Triticum aestivum, foliar, read-out: PUCCRT disease control, host wheat, 400 ppm (+++: 100 ppm)
Method: as §1
The formulated test compounds were applied by foliar spray. The following plant pathogens and their corresponding plants were employed.
Puccinia recondita PUCCRT wheat
as §3, §4

[5] = system: Erysiphe graminis tritici (powdery mildew); assay: Foliar spray fungicide test, Erysiphe graminis tritici (powdery mildew) on wheat; conditions: Blumeria graminis, in Triticum aestivum, foliar, read-out: ERYSGT disease control, host wheat, 400 ppm (+++: 100 ppm)

SMILES: FC(F)(F)c1cnc(Oc2ccc(CCNc3ncnc4cccnc34)cc2)c(Cl)c1 [Compound 2]
- pest or weed control at 400 µg/mL [1]: 90 to 100%
- pest or weed control at 400 µg/mL [2]: 90 to 100%
- pest or weed control at 400 µg/mL [3]: 20 to 89%
- pest or weed control at 400 µg/mL [4]: 90 to 100%
- pest or weed control at 400 µg/mL [5]: 90 to 100%

SMILES: N#Cc1cccnc1Oc1ccc(CCOc2ncnc3c(F)cccc23)cc1 [Compound 3]
- pest or weed control at 400 µg/mL [1]: 20 to 89%
- pest or weed control at 400 µg/mL [2]: 90 to 100%
- pest or weed control at 400 µg/mL [3]: 20 to 89%
- pest or weed control at 400 µg/mL [4]: 20 to 89%
- pest or weed control at 400 µg/mL [5]: 20 to 89%

SMILES: N#Cc1cccnc1Oc1ccc(CCOc2ncnc3cccc(F)c23)cc1 [Compound 4]
- pest or weed control at 400 µg/mL [1]: 0 to 19%
- pest or weed control at 400 µg/mL [2]: 20 to 89%
- pest or weed control at 400 µg/mL [3]: 0 to 19%
- pest or weed control at 400 µg/mL [4]: 0 to 19%
- pest or weed control at 400 µg/mL [5]: 20 to 89%

SMILES: O=[N+]([O-])c1cccnc1Oc1ccc(CCOc2ncnc3c(F)cccc23)cc1 [Compound 8]
- pest or weed control at 400 µg/mL [1]: 20 to 89%
- pest or weed control at 400 µg/mL [2]: 90 to 100%
- pest or weed control at 400 µg/mL [3]: 20 to 89%
- pest or weed control at 400 µg/mL [4]: 20 to 89%
- pest or weed control at 400 µg/mL [5]: 90 to 100%

SMILES: O=[N+]([O-])c1cccnc1Oc1ccc(CCOc2ncnc3cccc(F)c23)cc1 [Compound 9]
- pest or weed control at 400 µg/mL [1]: 0 to 19%
- pest or weed control at 400 µg/mL [2]: 90 to 100%
- pest or weed control at 400 µg/mL [3]: 0 to 19%
- pest or weed control at 400 µg/mL [4]: 0 to 19%
- pest or weed control at 400 µg/mL [5]: 0 to 19%

SMILES: Fc1cccc2c(OCCc3ccc(Oc4ncccc4C(F)(F)F)cc3)ncnc12 [Compound 10]
- pest or weed control at 400 µg/mL [1]: 90 to 100%
- pest or weed control at 400 µg/mL [2]: 90 to 100%
- pest or weed control at 400 µg/mL [3]: 90 to 100%
- pest or weed control at 400 µg/mL [4]: 90 to 100%
- pest or weed control at 400 µg/mL [5]: 90 to 100%

SMILES: Fc1cccc2c(NCCc3ccc(Oc4ncccc4C(F)(F)F)cc3)ncnc12 [Compound 11]
- pest or weed control at 400 µg/mL [1]: 90 to 100%
- PLASVI disease control ([2]; host grape, foliar spray, 400 ppm (+++: 100 ppm)): + ++
- pest or weed control at 400 µg/mL [3]: 90 to 100%
- pest or weed control at 400 µg/mL [4]: 90 to 100%
- pest or weed control at 400 µg/mL [5]: 90 to 100%

SMILES: Fc1cccc2c(NCCc3ccc(Oc4cc(C(F)(F)F)ccn4)cc3)ncnc12 [Compound 14]
- pest or weed control at 400 µg/mL [1]: 90 to 100%
- pest or weed control at 400 µg/mL [2]: 90 to 100%
- pest or weed control at 400 µg/mL [3]: 20 to 89%
- pest or weed control at 400 µg/mL [4]: 90 to 100%
- pest or weed control at 400 µg/mL [5]: 90 to 100%

SMILES: Fc1cccc2c(OCCc3ccc(Oc4ccc(Cl)cn4)cc3)ncnc12 [Compound 17]
- pest or weed control at 400 µg/mL [1]: 90 to 100%
- pest or weed control at 400 µg/mL [2]: 90 to 100%
- pest or weed control at 400 µg/mL [3]: 20 to 89%
- pest or weed control at 400 µg/mL [4]: 90 to 100%
- pest or weed control at 400 µg/mL [5]: 90 to 100%

SMILES: O=[N+]([O-])c1ccc(Oc2ccc(CCNc3ncnc4c(F)cccc34)cc2)nc1 [Compound 24]
- pest or weed control at 400 µg/mL [1]: 20 to 89%
- pest or weed control at 400 µg/mL [2]: 90 to 100%
- pest or weed control at 400 µg/mL [3]: 20 to 89%
- pest or weed control at 400 µg/mL [4]: 20 to 89%
- pest or weed control at 400 µg/mL [5]: 0 to 19%

SMILES: FC(F)(F)c1ccc(Oc2ccc(CCOc3ncnc4ncccc34)cc2)nc1 [Compound 30]
- pest or weed control at 400 µg/mL [1]: 90 to 100%
- pest or weed control at 400 µg/mL [2]: 90 to 100%
- pest or weed control at 400 µg/mL [3]: 0 to 19%
- pest or weed control at 400 µg/mL [4]: 90 to 100%
- pest or weed control at 400 µg/mL [5]: 90 to 100%

SMILES: FC(F)(F)c1ccc(Oc2ccc(CCNc3ncnc4ncccc34)cc2)nc1 [Compound 31]
- pest or weed control at 400 µg/mL [1]: 20 to 89%
- pest or weed control at 400 µg/mL [2]: 90 to 100%
- pest or weed control at 400 µg/mL [3]: 20 to 89%
- pest or weed control at 400 µg/mL [4]: 90 to 100%
- pest or weed control at 400 µg/mL [5]: 20 to 89%

SMILES: FC(F)(F)c1ccc(Oc2ccc(CCNc3ncnc4cccnc34)cc2)nc1 [Compound 32]
- pest or weed control at 400 µg/mL [1]: 90 to 100%
- pest or weed control at 400 µg/mL [2]: 90 to 100%
- pest or weed control at 400 µg/mL [3]: 90 to 100%
- pest or weed control at 400 µg/mL [4]: 90 to 100%
- pest or weed control at 400 µg/mL [5]: 90 to 100%

SMILES: Fc1cccc2c(OCCc3ccc(Oc4cccc(OCC(F)(F)F)n4)cc3)ncnc12 [Compound 33]
- pest or weed control at 400 µg/mL [1]: 20 to 89%
- pest or weed control at 400 µg/mL [2]: 90 to 100%
- pest or weed control at 400 µg/mL [3]: 0 to 19%
- pest or weed control at 400 µg/mL [4]: 90 to 100%
- pest or weed control at 400 µg/mL [5]: 90 to 100%

SMILES: Fc1cccc2c(OCCc3ccc(Oc4cccc(C(F)(F)F)n4)cc3)ncnc12 [Compound 36]
- pest or weed control at 400 µg/mL [1]: 90 to 100%
- pest or weed control at 400 µg/mL [2]: 90 to 100%
- pest or weed control at 400 µg/mL [3]: 20 to 89%
- pest or weed control at 400 µg/mL [4]: 90 to 100%
- pest or weed control at 400 µg/mL [5]: 90 to 100%

SMILES: Fc1cccc2c(NCCc3ccc(Oc4cccc(C(F)(F)F)n4)cc3)ncnc12 [Compound 37]
- pest or weed control at 400 µg/mL [1]: 20 to 89%
- pest or weed control at 400 µg/mL [2]: 90 to 100%
- pest or weed control at 400 µg/mL [3]: 90 to 100%
- pest or weed control at 400 µg/mL [4]: 90 to 100%
- pest or weed control at 400 µg/mL [5]: 90 to 100%

SMILES: Fc1cccc2c(NCCc3ccc(Oc4cccc(C(F)(F)F)n4)cc3)ccnc12 [Compound 40, 8-Fluoro-4-(2-(4-(6-(trifluoromethyl)-2-pyridinyloxy)phenyl)ethylamino)quinoline]
- pest or weed control at 400 µg/mL [1]: 20 to 89%
- pest or weed control at 400 µg/mL [2]: 90 to 100%
- pest or weed control at 400 µg/mL [3]: 20 to 89%
- pest or weed control at 400 µg/mL [4]: 90 to 100%
- pest or weed control at 400 µg/mL [5]: 90 to 100%

SMILES: Brc1cnc(Oc2ccc(CCOc3ncnc4ccccc34)cc2)nc1 [Compound 46]
- pest or weed control at 400 µg/mL [1]: 0 to 19%
- pest or weed control at 400 µg/mL [2]: 0 to 19%
- pest or weed control at 400 µg/mL [3]: 20 to 89%
- pest or weed control at 400 µg/mL [4]: 20 to 89%
- pest or weed control at 400 µg/mL [5]: 20 to 89%

SMILES: Clc1cnc(Oc2ccc(CCOc3ncnc4ccccc34)cc2)nc1 [Compound 47]
- pest or weed control at 400 µg/mL [1]: 20 to 89%
- pest or weed control at 400 µg/mL [2]: 20 to 89%
- pest or weed control at 400 µg/mL [3]: 0 to 19%
- pest or weed control at 400 µg/mL [5]: 90 to 100%

SMILES: Fc1cccc2c(OCCc3ccc(Oc4ncc(Cl)cn4)cc3)ccnc12 [Compound 48]
- pest or weed control at 400 µg/mL [1]: 0 to 19%
- pest or weed control at 400 µg/mL [2]: 20 to 89%
- pest or weed control at 400 µg/mL [3]: 0 to 19%
- pest or weed control at 400 µg/mL [5]: 20 to 89%

SMILES: Clc1ccc(Oc2ccc(CCOc3ncnc4ccccc34)cc2)nn1 [Compound 49]
- pest or weed control at 400 µg/mL [1]: 0 to 19%
- pest or weed control at 400 µg/mL [2]: 90 to 100%
- pest or weed control at 400 µg/mL [3]: 0 to 19%
- pest or weed control at 400 µg/mL [4]: 20 to 89%
- pest or weed control at 400 µg/mL [5]: 20 to 89%
